Experiment: solvent given as SMILES

C1CCCCC1
Settings | solvation free energy, 298 K [kcal/mol]
in BrC(Br)C(Br)Br | -3.42
in Brc1cccc2ccccc12 | -3.66
in Brc1ccccc1 | -4.07
in C1=Cc2ccccc2C1 | -3.92
in C1CCC(C2CCCCC2)CC1 | -4.09
in C1CCNC1 | -4.04
in C1CCNCC1 | -4.32
in C1CCOC1 | -4.23
in C1COCCO1 | -3.66
in C=CCCCC | -4.22
in C=CCCCCCC | -4.18
in C=CCCCCCCCC | -4.12
in C=CCCCCCCCCCCCCCC | -3.89
in CC1CCS(=O)(=O)C1 | -2.73
in CC1COC(=O)O1 | -2.65
in CC#N | -3.03
in CC(=O)CC(C)C | -3.92
in CC(=O)O | -3.23
in CC(=O)OCc1ccccc1 | -3.53
in CC(=O)c1ccccc1 | -3.52
in CC(C)(C)O | -3.67
in CC(C)=O | -3.58
in CC(C)CC(C)(C)C | -4.15
in CC(C)CCCC(C)CCCC(C)CCCCC(C)CCCC(C)CCCC(C)C | -3.87
in CC(C)CCO | -3.77
in CC(C)CO | -3.93
in CC(C)O | -3.52
in CC(C)OC(C)C | -4.18
in CCBr | -4.31
in CCC#N | -3.57
in CCC(C)(C)OC | -4.3
in CCC(C)=O | -3.79
in CCC(C)O | -3.64
in CCCC#N | -3.45
in CCCC(=O)OCC | -3.93
in CCCC(C)=O | -3.82
in CCCCC | -4.25
in CCCCC#N | -3.58
in CCCCC(CC)COC(=O)CCCCC(=O)OCC(CC)CCCC | -3.77
in CCCCC(CC)COC(=O)c1ccccc1C(=O)OCC(CC)CCCC | -3.6
in CCCCCC | -4.24
in CCCCCC#N | -3.66
in CCCCCC(C)=O | -3.86
in CCCCCCC | -4.2
in CCCCCCCC | -4.18
in CCCCCCCCC | -4.13
in CCCCCCCCC=CCCCCCCCC(=O)OCC(COC(=O)CCCCCCCC=CCCCCCCCC)OC(=O)CCCCCCCC=CCCCCCCCC | -3.86
in CCCCCCCCCC | -4.11
in CCCCCCCCCCCC | -4.03
in CCCCCCCCCCCCCC | -3.91
in CCCCCCCCCCCCCCCC | -3.97
in CCCCCCCCCCCCO | -3.7
in CCCCCCCCCCO | -3.42
in CCCCCCCCN(CCCCCCCC)CCCCCCCC | -3.86
in CCCCCCCCO | -3.73
in CCCCCCCO | -3.72
in CCCCCCO | -3.75
in CCCCCCOC(C)=O | -3.93
in CCCCCN(CCCCC)CCCCC | -4.01
in CCCCCO | -3.71
in CCCCCl | -4.17
in CCCCN(C=O)CCCC | -3.67
in CCCCN(CCCC)CCCC | -3.92
in CCCCO | -3.7
in CCCCOC | -4.2
in CCCCOC(=O)c1ccccc1C(=O)OCCCC | -3.73
in CCCCOC(C)=O | -3.91
in CCCCOCC | -4.07
in CCCCOCCCC | -4.13
in CCCO | -3.59
in CCCOCCC | -4.12
in CCN1CCCC1=O | -3.39
in CCN(CC)C(C)=O | -3.55
in CCN(CC)CC | -4.23
in CCNC(C)=O | -3.41
in CCNC=O | -3.22
in CCO | -3.5
in CCOC(=O)c1ccccc1C(=O)OCC | -3.24
in CCOC(C)(C)C | -4.17
in CCOC(C)=O | -3.78
in CCOCC | -4.19
in CCOCCO | -3.41
in CCOCCOCCOCC | -3.81
in CCOc1ccccc1 | -3.89
in CN1CCCC1=O | -3.18
in CN1CCCCC1=O | -3.37
in CN1CCN(C)C1=O | -3.07
in CN(C)P(=O)(N(C)C)N(C)C | -3.47
in CNC(C)=O | -3.26
in CNC=O | -2.93
in CO | -3.25
in COC(C)(C)C | -4.16
in COC(C)=O | -3.61
in COCCO | -3.15
in COc1ccccc1 | -3.84
in CS(C)=O | -2.5
in Cc1ccc(C)cc1 | -4.17
in Cc1cccc2ccccc12 | -3.8
in Cc1cccc(O)c1 | -3.42
in Cc1ccccc1 | -4.2
in Cc1ccccn1 | -3.91
in ClC(Cl)(Cl)Cl | -4.44
in ClC(Cl)C(Cl)Cl | -3.76
in ClC(Cl)Cl | -4.33
in ClCCCl | -3.93
in ClCCl | -4.1
in Clc1cccc2ccccc12 | -3.88
in Clc1ccccc1 | -4.22
in FC(F)(F)C(F)(F)C(F)(F)C(F)(F)C(F)(F)C(F)(F)C(F)(F)C(F)(F)F | -2.65
in FC(F)(F)C(F)(F)C(F)(F)C(F)(F)C(F)(F)C(F)(F)F | -2.71
in Fc1ccccc1 | -4.12
in ICI | -3.06
in N#CCCCC#N | -2.17
in N#CCCCCC#N | -2.51
in N#CCCOCCC#N | -2.24
in N#CCc1ccccc1 | -3.16
in N#Cc1ccccc1 | -3.54
in NC=O | -1.36
in NCCO | -1.69
in NCc1ccccc1 | -3.46
in Nc1ccccc1 | -3.07
in O | 1.22
in O=C1CCCCC1 | -3.85
in O=C1CCCO1 | -2.81
in O=C(O)C(Cl)Cl | -3.29
in O=CN1CCOCC1 | -2.65
in O=Cc1ccco1 | -3.01
in OC1CCCCC1 | -3.69
in OCCCCCO | -2.61
in OCCCCO | -2.53
in OCCCO | -2.19
in OCCO | -1.5
in OCCOCCO | -2.16
in OCCOCCOCCO | -2.26
in OCCOCCOCCOCCO | -2.34
in OCCS | -2.58
in OCCc1ccccc1 | -3.32
in OCc1ccccc1 | -3.23
in OCc1ccco1 | -2.94
in S=C=S | -4.49
in c1ccc2c(c1)CCCC2 | -4.1
in c1ccc2ncccc2c1 | -3.61
in c1ccc(C2CCCCC2)cc1 | -4.03
in c1ccccc1 | -4.23
in c1ccncc1 | -3.75

CCNc1nc(NC(C)C(C)C)nc(SC)n1 (stereo not given)
Settings | solvation free energy, 298 K [kcal/mol]
in O | -8.73

CN1C(=O)C(O)N=C(c2ccccc2)c2cc(Cl)ccc21 (stereo not given)
Settings | solvation free energy, 298 K [kcal/mol]
in CC(C)O | -18.1
in CCCCCCO | -18.6
in CCCCCO | -18.5
in CCCCO | -18.5
in CCCO | -18.5
in CCO | -18.6
in CN(C)C=O | -20
in CO | -19.1
in O | -15.2
in O=C1CCCCC1 | -19.6

O=S1(=O)CCCC1
Settings | solvation free energy, 298 K [kcal/mol]
in O | -8.61

CC(C)CC(=O)CC(C)C
Settings | solvation free energy, 298 K [kcal/mol]
in CCCCCCC | -6.13

CCCC(O)C(C)C (stereo not given)
Settings | solvation free energy, 298 K [kcal/mol]
in CCCCCCCC | -5.34
in CCCCCCCCCC | -5.46

NCCc1ccccc1
Settings | solvation free energy, 298 K [kcal/mol]
in C=CCCCCCCC=C | -7.41
in O | -6.56

C=CCC(C)(C)C
Settings | solvation free energy, 298 K [kcal/mol]
in C=CCCCCCCCCCCCCCC | -3.59
in O | 1.53

Cc1ccc(C(=O)O)cc1
Settings | solvation free energy, 298 K [kcal/mol]
in C=CCCCCCCCCCCCCCC | -6.96
in CCCCCCCCO | -10.2
in O | -7.35

CC(C)OC(C)C
Settings | solvation free energy, 298 K [kcal/mol]
in Brc1cccc2ccccc12 | -3.49
in CC(=O)N(C)C | -3.41
in CC(=O)OCc1ccccc1 | -3.49
in CC(C)CC(C)(C)C | -3.78
in CCC(C)=O | -3.9
in CCC(C)Cl | -4.16
in CCC(C)O | -3.75
in CCCCCCCC | -3.84
in CCCCCCCCCCO | -3.43
in CCCCCCCCO | -3.63
in CCCCCl | -4.18
in CCCCN(C=O)CCCC | -3.48
in CCCCO | -3.75
in CCCO | -3.79
in CCN1CCCC1=O | -3.23
in CCN(CC)C(C)=O | -3.51
in CCNC(C)=O | -3.33
in CCNC=O | -3.23
in CN1CCCCC1=O | -3.27
in CN(C)C=O | -3.19
in CNC(C)=O | -3.25
in CNC=O | -3.04
in CO | -3.82
in ClC(Cl)(Cl)Cl | -4.23
in [2H]O[2H] | -1.56
in c1ccc2ncccc2c1 | -3.45

Cc1ccccc1C
Settings | solvation free energy, 298 K [kcal/mol]
in CC#N | -5.37
in CC(C)CC(C)(C)C | -5.5
in CC(O)CO | -4.31
in CCCCCCC | -5.51
in CCCCCCCCCCCCCCCC | -5.38
in CCCCCCCCO | -5.3
in CCCCCO | -5.18
in CCCCOC(C)=O | -6.22
in CNC=O | -5.02
in COCCO | -5.25
in ClCCCl | -6.13
in NC=O | -3.55
in NCCO | -4.08
in O | -0.89
in O=CN1CCOCC1 | -5.27
in O=Cc1ccco1 | -5.37
in OCCO | -3.65
in OCCOCCO | -4.48
in OCCOCCOCCO | -4.61

C=CCCC
Settings | solvation free energy, 298 K [kcal/mol]
in C=CCCCCCCCCCCCCCC | -2.77
in CC#N | -2.5
in CC(=O)N(C)C | -2.35
in CCC#N | -2.86
in CCC(C)=O | -2.88
in CCCC#N | -2.56
in CCCCC(CC)COC(=O)CCCCC(=O)OCC(CC)CCCC | -2.66
in CCCCCCC | -3.15
in CCCCCCCC | -3.1
in CCCCCCCCO | -2.63
in CCCCO | -2.65
in CCCCOC(=O)c1ccccc1C(=O)OCCCC | -2.7
in CCN1CCCC1=O | -2.46
in CCN(CC)C(C)=O | -2.62
in CCNC(C)=O | -2.46
in CCNC=O | -2.26
in CCOC(=O)c1ccccc1C(=O)OCC | -2.33
in CCOC(C)=O | -2.96
in CN1CCCC1=O | -2.25
in CN1CCCCC1=O | -2.41
in CN(C)C=O | -2.32
in CNC(C)=O | -2.22
in CNC=O | -1.98
in COC(C)=O | -2.88
in Cc1ccc(C)cc1 | -3.11
in ClCCCl | -2.86
in Clc1ccccc1 | -3.01
in N#Cc1ccccc1 | -2.61
in O | 1.68
in O=C1CCCCC1 | -2.77
in O=C1CCCO1 | -1.95
in O=CN1CCOCC1 | -1.84
in OCCOCCO | -1.23

Source: the CombiSolv-Exp solvation set (Vermeire and Green 2021)
